Results reported in patent publication US20030199692A1, “Propanoic acid derivatives that inhibit the binding of integrins to their receptors” (priority 1999, published 2003).
pIC50: −log10 of the molar value.

Molecular target: T1, α4β1 integrin (Homo sapiens, UniProt P05556+P13612)
T1 construct: endogenous in cells; host or cells: Ramos cells
Experiment: Inhibition of adhesion of calcein AM-labeled Ramos cells to CS1 (fibronectin) peptide-conjugated ovalbumin
Format: cell-based
Details: Ramos cell adhesion to CS1-conjugated ovalbumin, 30 minutes at 37° C.
Procedure: The ability of compounds of the present invention to inhibit binding is determined by a procedure in which a 26-amino acid peptide containing the CS1 sequence of fibronectin with an N-terminal Cys ([…]) was coupled to maleimide activated ovalbumin. Bovine serum albumin (BSA) and CS1 conjugated ovalbumin were coated onto 96-well polystyrene plates at 0.5 mg/ml in TBS (50 mM Tris, pH 7.5; 150 mM NaCl) at 4° C. for 16 hours. The plates were washed three times with TBS and blocked with TBS containing 3% BSA at room temperature for 4 hours. Blocked plates were washed three times in binding buffer (TBS; 1 mM MgCl2; 1 mM CaCl2; 1 mM MnCl2) prior to assay. Ramos cells fluorescently labeled with calcein AM were resuspended in binding buffer (10^7 cells/ml) and diluted 1:2 with same buffer with or without compound. The cells were added immediately to the wells (2.5×10^5 cells/well) and incubated for 30 minutes at 37° C. Following three washes with binding buffer, adherent cells were lysed and quantitated using a fluorometer. IC50 is defined as the dose required to give 50% inhibition. MS in Table 3 stands for Mass Spec. nd stands for not determined in the Tables. A stands for inhibition in Table 2, and the percent inhibition indicates the inhibition of cell adhesion when compound is included in the assay at a concentration of 100 μM. The lower the IC50 value and the greater the percentage of inhibition, the more efficient the compound is at prevention of cell adhesion.

T1 sequence (P13612 34-1032): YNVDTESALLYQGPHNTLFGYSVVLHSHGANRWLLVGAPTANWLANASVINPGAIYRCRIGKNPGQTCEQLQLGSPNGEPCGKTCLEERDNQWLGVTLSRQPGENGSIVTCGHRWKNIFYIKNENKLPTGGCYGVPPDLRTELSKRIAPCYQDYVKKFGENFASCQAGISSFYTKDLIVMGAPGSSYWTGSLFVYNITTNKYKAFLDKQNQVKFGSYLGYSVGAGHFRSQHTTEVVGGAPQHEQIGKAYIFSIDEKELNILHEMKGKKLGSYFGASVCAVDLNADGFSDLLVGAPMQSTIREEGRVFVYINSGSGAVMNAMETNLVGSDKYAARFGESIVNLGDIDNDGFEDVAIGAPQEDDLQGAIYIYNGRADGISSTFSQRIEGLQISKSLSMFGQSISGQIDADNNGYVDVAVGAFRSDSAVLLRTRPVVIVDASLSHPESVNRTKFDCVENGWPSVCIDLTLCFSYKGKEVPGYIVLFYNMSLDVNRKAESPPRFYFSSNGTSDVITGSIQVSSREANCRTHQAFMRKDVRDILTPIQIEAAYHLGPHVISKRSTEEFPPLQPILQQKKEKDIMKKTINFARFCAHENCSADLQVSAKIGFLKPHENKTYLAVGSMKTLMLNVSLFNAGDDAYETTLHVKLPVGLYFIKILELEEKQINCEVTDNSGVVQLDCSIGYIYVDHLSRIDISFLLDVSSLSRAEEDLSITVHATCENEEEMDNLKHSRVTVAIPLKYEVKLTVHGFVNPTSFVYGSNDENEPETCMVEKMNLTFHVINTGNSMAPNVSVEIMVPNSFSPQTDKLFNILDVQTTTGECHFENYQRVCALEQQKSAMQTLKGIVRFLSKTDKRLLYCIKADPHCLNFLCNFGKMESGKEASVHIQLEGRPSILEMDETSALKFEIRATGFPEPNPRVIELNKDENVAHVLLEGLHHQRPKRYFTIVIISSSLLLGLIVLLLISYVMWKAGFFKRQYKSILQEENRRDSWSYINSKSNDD
T1 sequence (P05556 21-798): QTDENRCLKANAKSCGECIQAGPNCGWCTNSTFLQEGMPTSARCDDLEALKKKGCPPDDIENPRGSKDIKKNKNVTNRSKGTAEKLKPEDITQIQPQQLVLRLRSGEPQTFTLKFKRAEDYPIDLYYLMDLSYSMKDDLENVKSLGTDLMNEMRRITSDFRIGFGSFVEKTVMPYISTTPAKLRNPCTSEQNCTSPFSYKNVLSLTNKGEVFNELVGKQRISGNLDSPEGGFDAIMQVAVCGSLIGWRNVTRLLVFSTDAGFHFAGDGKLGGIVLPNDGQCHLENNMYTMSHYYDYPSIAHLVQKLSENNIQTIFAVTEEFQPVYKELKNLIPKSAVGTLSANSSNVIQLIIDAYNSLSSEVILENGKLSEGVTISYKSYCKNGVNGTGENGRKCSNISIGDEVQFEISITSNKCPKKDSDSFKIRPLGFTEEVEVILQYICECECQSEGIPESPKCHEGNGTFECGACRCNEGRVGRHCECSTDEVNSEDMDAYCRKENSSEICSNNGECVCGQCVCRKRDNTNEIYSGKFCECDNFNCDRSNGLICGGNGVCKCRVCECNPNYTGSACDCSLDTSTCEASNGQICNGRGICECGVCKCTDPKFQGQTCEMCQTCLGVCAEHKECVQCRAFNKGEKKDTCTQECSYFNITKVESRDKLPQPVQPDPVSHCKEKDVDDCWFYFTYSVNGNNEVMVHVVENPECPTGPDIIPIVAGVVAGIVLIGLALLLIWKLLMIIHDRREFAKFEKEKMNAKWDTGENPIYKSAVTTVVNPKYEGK

Row | SMILES | pIC50 (Table 4) | also measured
1 | O=C(O)C[C@H](NC(=O)Cc1cccc(Oc2ccccc2)c1)c1ccc2c(c1)OCO2 [(3S)-3-(1,3-benzodioxol-5-yl)-3-({2-[3-(phenyloxy)phenyl]acetyl}amimo)-propanoic acid] | – | pIC50 (Table 3): < 4.00
2 | CCCCC(C(=O)N[C@@H](CC(=O)O)c1ccc2c(c1)OCO2)n1cc(C)cc(Cc2ccccc2)c1=O (mixture of isomers) [Compound 8, (3S)-3-(1,3-benzodioxol-5-yl)-3-((2R,S)-2-(3-benzyl-5-methyl-2-oxo-1(2H)-pyridinyl)hexanoylamino)propanoic acid] | – | pIC50 (Table 1): 8.15
3 | CCCCC(C(=O)N[C@@H](CC(=O)O)c1ccc2c(c1)OCO2)n1cc(C)cc(Cc2cccc(Cl)c2)c1=O (mixture of isomers) [Compound 19, (3S)-3-(1,3-benzodioxol-5-yl)-3-((2R,S)-2-(3-(3-chlorobenzyl)-5-methyl-2-oxo-1(2H)-pyridinyl)hexanoylamino)propanoic acid] | – | pIC50 (Table 1): 8.22
4 | CCCC[C@H](C(=O)N[C@@H](CC(=O)O)c1ccc2c(c1)OCO2)n1cc(C)c(O)c(Cc2ccccc2)c1=O [(3S)-3-(1,3-benzodioxol-5-yl)-3-{[(2R)-2-(3-benzyl-4-hydroxy-5-methyl-2-oxopyridin-1(2H)-yl)hexanoyl]amino}propanoic acid] | 5.70 | –
5 | CCCCC(C(=O)N[C@@H](CC(=O)O)c1ccc2ccn(C)c2c1)n1cc(C)cc(Cc2ccccc2)c1=O (stereo partly drawn) [(3S)-3-(1-methyl-1H-indol-6-yl)-3-({2-[5-methyl-2-oxo-3-(phenylmethyl)-1(2H)-pyridinyl]hexanoyl}amino)propanoic acid] | 8.00 | –
6 | CCCCC(C(=O)N[C@@H](CC(=O)O)c1ccc2c(c1)OCO2)n1cccc(NCc2cccs2)c1=O (stereo partly drawn) [(3S)-3-(1,3-benzodioxol-5-yl)-3-({2-[2-oxo-3-[(2-thiophenylmethyl)amino]-1(2H)-pyridinyl]hexanoyl}amino)propanoic acid] | – | pIC50 (Table 3): 5.89
7 | CCCCOc1cccc([C@H](CC(=O)O)NC(=O)C(CCCC)n2cc(C)cc(Cc3ccccc3)c2=O)c1 (stereo partly drawn) [(3S)-3-{[2-(3-benzyl-5-methyl-2-oxopyridin-1(2H)-yl)hexanoyl]amino}-3-(3-butoxyphenyl)propanoic acid] | 7.35 | –
8 | CCCCC(C(=O)N[C@@H](CC(=O)O)c1ccc2c(c1)OCO2)N1C(=O)N(Cc2ccccc2)Cc2ccccc21 (stereo partly drawn) [(3S)-3-(1,3-benzodioxol-5-yl)-3-({2-[2-oxo-3-(phenylmethyl)-3,4-dihydro-1(2H)-quinazolinyl]hexanoyl}amino)propanoic acid] | – | pIC50 (Table 3): 6.40
9 | CCCC[C@@H](C(=O)N[C@@H](CC(=O)O)c1ccc2c(c1)OCO2)N1CC(=O)N(Cc2cccs2)[C@@H](Cc2ccccc2)C1=O [(3S)-3-(1,3-benzodioxol-5-yl)-3-({(2S)-2-[(3S)-2,5-dioxo-3-(phenylmethyl)-4-(2-thiophenylmethyl)tetrahydro-1(2H)-pyrazinyl]hexanoyl}amino)propanoic acid] | – | pIC50 (Table 3): 5.22
10 | CCCCC(C(=O)N[C@@H](C(=O)O)c1ccccc1)n1cc(C)cc(Cc2ccccc2)c1=O (stereo partly drawn) [(2R)-2-({2-[5-methyl-2-oxo-3-(phenylmethyl)-1(2H)-pyridinyl]hexanoyl}amino)-2-phenylethanoic acid] | < 5.00 | –
11 | O=C(O)C[C@H](NC(=O)Cn1c(=O)n(Cc2ccccc2)c2ccccc21)c1ccc2c(c1)OCO2 [(3S)-3-(1,3-benzodioxol-5-yl)-3-({2-[2-oxo-3-(phenylmethyl)-2,3-dihydro-1H-benzimidazol-1-yl]acetyl}amino)propanoic acid] | – | pIC50 (Table 3): 6.70
12 | CCCCC(C(=O)N[C@@H](CC(=O)O)c1ccc2c(c1)OCO2)n1cc(C)cc(Cc2ccc(F)cc2)c1=O (mixture of isomers) [Compound 17, (3S)-3-(1,3-benzodioxol-5-yl)-3-((2R,S)-2-(3-(4-fluorobenzyl)-5-methyl-2-oxo-1(2H)-pyridinyl)hexanoylamino)propanoic acid] | – | pIC50 (Table 1): 7.22
13 | CCCCC(C(=O)N[C@@H](CC(=O)O)c1cccc(OC(C)C)c1)n1ccc(CCc2ccccc2)cc1=O (stereo partly drawn) [(3S)-3-(3-isopropoxyphenyl)-3-({2-[2-oxo-4-(2-phenylethyl)pyridin-1(2H)-yl]hexanoyl}amino)propanoic acid] | 7.02 | –
14 | CCCCC(C(=O)N[C@H](Cc1ccccc1)C(=O)O)n1cc(C)cc(Cc2ccccc2)c1=O (stereo partly drawn) [(2R)-2-({2-[5-methyl-2-oxo-3-(phenylmethyl)-1(2H)-pyridinyl]hexanoyl}amino)-3-phenylpropanoic acid] | 5.30 | –
15 | CCCC[C@@H](C(=O)N[C@@H](CC(=O)O)c1ccc2c(c1)OCO2)n1cccc(Cc2ccccc2)c1=O [(3S)-3-(1,3-benzodioxol-5-yl)-3-({(2S)-2-[2-oxo-3-(phenylmethyl)-1(2H)-pyridinyl]hexanoyl}amino)propanoic acid] | – | pIC50 (Table 3): 8.40
16 | CCCC[C@@H](C(=O)N[C@@H](CC(=O)O)c1ccc2c(c1)OCO2)n1c(=O)c2ccccc2n(Cc2ccccc2)c1=O [(3S)-3-(1,3-benzodioxol-5-yl)-3-({(2S)-2-[2,4-dioxo-1-(phenylmethyl)-1,4-dihydro-3(2H)-quinazolinyl]hexanoyl}amino)propanoic acid] | – | pIC50 (Table 3): 7.00
17 | CCCCC(C(=O)N[C@@H](CC(=O)O)c1ccc2c(c1)OCO2)n1cc(C)cc(Cc2ccc(OC)cc2)c1=O (mixture of isomers) [Compound 15, (3S)-3-(1,3-benzodioxol-5-yl)-3-((2R,S)-2-(3-(4-methoxybenzyl)-5-methyl-2-oxo-1(2H)-pyridinyl)hexanoylamino)propanoic acid] | – | pIC50 (Table 1): 7.52

More lines, main results first:

Row | pIC50 (Table 4) | SMILES | also measured
18 | 8.00 | CCCCC(C(=O)N[C@@H](CC(=O)O)c1cccc(N(CC)CC)c1)n1cc(C)cc(Cc2ccccc2)c1=O (stereo partly drawn) [(3S)-3-[3-(diethylamino)phenyl]-3-({2-[5-methyl-2-oxo-3-{phenylmethyl)-1(2H)-pyridinyl]hexanoyl}amino)propanoic acid] | –
19 | 8.40 | CCCCC(C(=O)N[C@@H](CC(=O)O)c1cccc(OC(C)C)c1)n1cc(C)cc(Cc2ccccc2OC)c1=O (stereo partly drawn) [(3S)-3-(3-isopropoxyphenyl)-3-({2-[3-(2-methoxybenzyl)-5-methyl-2-oxopyridin-1(2H)-yl]hexanoyl}amino)propanoic acid] | –
20 | 7.82 | CCCCC(C(=O)N[C@@H](CC(=O)O)c1ccc(C)cc1)n1cc(C)cc(Cc2ccccc2Cl)c1=O (stereo partly drawn) [(3S)-3-({2-[3-(2-chlorobenzyl)-5-methyl-2-oxopyridin-1(2H)-yl]hexanoyl}amino)-3-(4-methylphenyl)propanoic acid] | –
21 | 6.60 | CCCCC(C(=O)N[C@@H](CC(=O)O)c1cccc(-c2ccccc2)c1)n1cc(C)cc(Cc2ccccc2)c1=O (stereo partly drawn) [(3S)-3-[1,1′-biphenyl]-3-yl-3-({2-[5-methyl-2-oxo-3-(phenylmethyl)-1(2H)-pyridinyl]hexanoyl}amino)propanoic acid] | –
22 | 8.40 | CCCCC(C(=O)N[C@@H](CC(=O)O)c1cccc(OC(C)C)c1)n1cc(C)cc(Cc2ccccc2)c1=O (stereo partly drawn) [(3S)-3-{[2-(3-benzyl-5-methyl-2-oxopyridin-1(2H)-yl)hexanoyl]amino}-3-(3-isopropoxyphenyl)propanoic acid] | –
23 | 7.70 | CCCCC(C(=O)N[C@@H](CC(=O)O)c1cccc(C(F)F)c1)n1cc(C)cc(Cc2ccccc2)c1=O (stereo partly drawn) [(3S)-3-[3-(difluoromethyl)phenyl]-3-({2-[5-methyl-2-oxo-3-(phenylmethyl)-1(2H)-pyridinyl]hexanoyl}amino)propanoic acid] | –
24 | 6.70 | CCCC[C@@H](C(=O)N[C@@H](CC(=O)O)c1ccc(-c2c(OC)cccc2OC)cc1)n1cc(C)cc(Cc2ccccc2)c1=O [(3S)-3-{[(2S)-2-(3-benzyl-5-methyl-2-oxopyridin-1(2H)-yl)hexanoyl]amino}-3-(2′,6′-dimethoxy-1,1′-biphenyl-4-yl)propanoic acid] | –
25 | 8.00 | Cc1cc(C(C(=O)N[C@@H](CC(=O)O)c2cccc(OC(C)C)c2)c2ccccc2)c(=O)n(Cc2ccccc2)c1 (stereo partly drawn) [(3S)-3-{3-[(1-methylethyl)oxy]phenyl}-3-({2-[5-methyl-2-oxo-1-(phenylmethyl)-1,2-dihydro-3-pyridinyl]-2-phenylacetyl}amino)propanoic acid] | –
26 | 7.64 | CCCCC(C(=O)N[C@@H](CC(=O)O)c1cccc(OCCC)c1)n1cc(C)cc(Cc2cccc(Cl)c2)c1=O (stereo partly drawn) [(3S)-3-({2-[3-(3-chlorobenzyl)-5-methyl-2-oxopyridin-1(2H)-yl]hexanoyl}amino)-3-(3-propoxyphenyl)propanoic acid] | –
27 | 7.60 | CCCCC(C(=O)N[C@@H](CC(=O)O)c1cc(F)cc(F)c1)n1cc(C)cc(Cc2ccccc2)c1=O (stereo partly drawn) [(3S)-3-{[2-(3-benzyl-5-methyl-2-oxopyridin-1(2H)-yl)hexanoyl]amino}-3-(3,5-difluorophenyl)propanoic acid] | –
28 | 8.40 | CCCCC(C(=O)N[C@@H](CC(=O)O)c1ccc(OC)c(OCC)c1)n1cc(C)cc(Cc2ccccc2)c1=O (stereo partly drawn) [(3S)-3-{[2-(3-benzyl-5-methyl-2-oxopyridin-1(2H)-yl)hexanoyl]amino}-3-(3-ethoxy-4-methoxyphenyl)propanoic acid] | –
29 | 6.85 | CCCCC(C(=O)N[C@@H](CC(=O)O)c1cc(C)c(OC)c(C)c1)n1cc(C)cc(Cc2ccccc2)c1=O (stereo partly drawn) [(3S)-3-{[2-(3-benzyl-5-methyl-2-oxopyridin-1(2H)-yl)hexanoyl]amino}-3-(4-methoxy-3,5-dimethylphenyl)propanoic acid] | –
